Test results published in patent US20100168102A9, “Amide Derivatives as Kinase Inhibitors” (Devgen NV, priority 2005, published 2010).
Like-named read-outs stand apart in the source and are kept apart here.

Legend:
PKC epsilon = target: T1, PKC epsilon (Homo sapiens, UniProt Q02156); experiment: Biochemical assay for PKC epsilon (fluorescence polarization, Protein Kinase C Assay Kit, Red); conditions: read-out: IC50 μM PKCε
T1 construct: purchased Invitrogen P2282
T1 sequence (Q02156 1-737): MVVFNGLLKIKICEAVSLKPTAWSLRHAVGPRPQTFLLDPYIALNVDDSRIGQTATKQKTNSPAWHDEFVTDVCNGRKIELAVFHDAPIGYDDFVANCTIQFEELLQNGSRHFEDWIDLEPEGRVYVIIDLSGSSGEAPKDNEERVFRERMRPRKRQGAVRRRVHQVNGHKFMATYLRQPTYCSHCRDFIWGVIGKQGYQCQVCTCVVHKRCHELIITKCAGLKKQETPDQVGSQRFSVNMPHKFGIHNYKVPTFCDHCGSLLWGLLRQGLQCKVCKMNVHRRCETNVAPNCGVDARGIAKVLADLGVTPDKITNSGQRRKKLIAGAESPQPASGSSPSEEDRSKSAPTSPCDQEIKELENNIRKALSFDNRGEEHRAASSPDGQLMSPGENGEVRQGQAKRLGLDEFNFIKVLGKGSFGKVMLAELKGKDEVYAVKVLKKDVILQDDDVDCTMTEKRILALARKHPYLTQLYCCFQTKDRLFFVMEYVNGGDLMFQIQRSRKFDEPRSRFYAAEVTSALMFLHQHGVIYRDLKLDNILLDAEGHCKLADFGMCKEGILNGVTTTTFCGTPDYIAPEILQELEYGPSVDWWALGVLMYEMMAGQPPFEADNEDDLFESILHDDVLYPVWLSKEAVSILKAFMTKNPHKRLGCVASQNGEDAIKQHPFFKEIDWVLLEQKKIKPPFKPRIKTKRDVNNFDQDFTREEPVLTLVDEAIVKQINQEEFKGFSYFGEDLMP
Summary of the method: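 PKC epsilon at 10 ng/ml final was preincubated 30 min at room temperature with compound in HEPES pH 7.4 with DTT and Triton X-100. ATP/protein substrate was then added in buffer with MgCl2 and CaCl2 for 80 min. The reaction was stopped with EDTA, phosphorylation was detected by fluorescence polarization with rhodamine tracer and anti-phosphoserine antibody, and IC50 values came from curve fits.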

human ROCKα/ROCKII mix = target: T2, human ROCKα/ROCKII mix (Homo sapiens, UniProt O75116); experiment: Biochemical assay for ROCK (fluorescence polarization, ROCK IMAP Kit)
T2 construct: purchased Upstate Biotechnology 14-451
T2 sequence (O75116 11-552 limits assumed): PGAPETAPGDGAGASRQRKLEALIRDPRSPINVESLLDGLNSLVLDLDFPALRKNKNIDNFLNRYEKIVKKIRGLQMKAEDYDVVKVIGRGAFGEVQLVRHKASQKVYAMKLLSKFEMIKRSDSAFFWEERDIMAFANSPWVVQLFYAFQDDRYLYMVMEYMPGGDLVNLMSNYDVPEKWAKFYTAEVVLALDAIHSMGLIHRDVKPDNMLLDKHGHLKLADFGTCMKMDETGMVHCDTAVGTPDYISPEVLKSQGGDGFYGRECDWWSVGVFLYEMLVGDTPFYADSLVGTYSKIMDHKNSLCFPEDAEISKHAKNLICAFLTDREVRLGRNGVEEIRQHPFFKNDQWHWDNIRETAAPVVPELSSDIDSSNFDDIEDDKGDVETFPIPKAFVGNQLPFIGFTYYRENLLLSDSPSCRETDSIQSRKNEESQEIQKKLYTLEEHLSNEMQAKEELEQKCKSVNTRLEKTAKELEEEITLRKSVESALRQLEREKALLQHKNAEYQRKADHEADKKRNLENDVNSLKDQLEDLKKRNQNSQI

[1] = Table 2, compounds of Formula XIII
[2] = compounds of Formula XIV, Table 3

| Compound | IC50 (PKC epsilon) | IC50 (human ROCKα/ROCKII mix) | IC50 (PKC epsilon; [2]) | IC50 (human ROCKα/ROCKII mix; [2]) | also measured |
| --- | --- | --- | --- | --- | --- |
| NC(CNC(=O)CCC1CCCCC1)c1ccc(C(=O)Nc2ccncc2)cc1 (centres unmarked) [Compound 52, 4-[1-Amino-2-(3-cyclohexyl-propionylamino)-ethyl]-N-pyridin-4-yl-benzamide] | – | – | – | – | IC50 (PKC epsilon; [1]): 0.5 to 5 µM; IC50 (human ROCKα/ROCKII mix; [1]): 0.05 to 0.5 µM |
| NC(CNC(=O)c1cccnc1)c1ccc(C(=O)Nc2ccncc2)cc1 (centres unmarked) [Compound 106, N-{2-Amino-2-[4-(pyridin-4-ylcarbamoyl)-phenyl]-ethyl}-nicotinamide] | – | – | – | – | IC50 (PKC epsilon; [1]): 0.5 to 5 µM; IC50 (human ROCKα/ROCKII mix; [1]): 0.5 to 5 µM |
| CC(C)(C(=O)N1CCCC1C(N)c1ccc(C(=O)Nc2ccncc2)cc1)c1ccc(Cl)cc1 (centres unmarked) [Compound 563, 4-(Amino-{1-[2-(4-chloro-phenyl)-2-methyl-propionyl]-pyrrolidin-2-yl}-methyl)-N-pyridin-4-yl-benzamide] | 0.5 to 5 µM | 0.5 to 5 µM | – | – | – |
| CCC(C)C(=O)NCC(N)c1ccc(C(=O)Nc2ccncc2)cc1 (centres unmarked) [Compound 35, 4-[1-Amino-2-(2-methyl-butyrylamino)-ethyl]-N-pyridin-4-yl-benzamide] | – | – | – | – | IC50 (PKC epsilon; [1]): 0.5 to 5 µM; IC50 (human ROCKα/ROCKII mix; [1]): 0.5 to 5 µM |
| NC(CC(=O)NCc1ccccc1)c1ccc(C(=O)Nc2ccncc2)cc1 (centres unmarked) [Compound 213, 4-(1-Amino-2-benzylcarbamoyl-ethyl)-N-pyridin-4-yl-benzamide] | – | – | 0.5 to 5 µM | 0.05 to 0.5 µM | – |
| NC(CC(=O)NCc1ccccc1F)c1ccc(C(=O)Nc2ccncc2)cc1 (centres unmarked) [Compound 256, 4-[1-Amino-2-(2-fluoro-benzylcarbamoyl)-ethyl]-N-pyridin-4-yl-benzamide] | – | – | 0.5 to 5 µM | 0.05 to 0.5 µM | – |
| Cc1cccc(CC(=O)N(C)CC(N)c2ccc(C(=O)Nc3ccncc3)cc2)c1 (centres unmarked) [Compound 423, 4-{1-Amino-2-[methyl-(2-m-tolyl-acetyl)-amino]-ethyl}-N-pyridin-4-yl-benzamide] | 5 to 50 µM | 0.5 to 5 µM | – | – | – |
| NC(CC(=O)Nc1cc(-c2ccco2)[nH]n1)c1ccc(C(=O)Nc2ccncc2)cc1 (centres unmarked) [Compound 323, 4-[1-Amino-2-(5-furan-2-yl-1H-pyrazol-3-ylcarbamoyl)-ethyl]-N-pyridin-4-yl-benzamide] | – | – | 0.5 to 5 µM | 0.05 to 0.5 µM | – |
| CN(CC(N)c1ccc(C(=O)Nc2ccncc2)cc1)C(=O)C1CCCc2ccccc21 (centres unmarked) [Compound 512, 1,2,3,4-Tetrahydro-naphthalene-1-carboxylic acid {2-amino-2-[4-(pyridin-4-ylcarbamoyl)-phenyl]-ethyl}-methyl-amide] | 5 to 50 µM | 0.5 to 5 µM | – | – | – |
| Cc1ccc(CC(=O)NCC(N)c2ccc(C(=O)Nc3ccncc3)cc2)cc1 (centres unmarked) [Compound 145, 4-{1-Amino-2-[2-(4-methyl-phenyl)-acetylamino]-ethyl}-N-pyridin-4-yl-benzamide] | – | – | – | – | IC50 (PKC epsilon; [1]): 0.5 to 5 µM; IC50 (human ROCKα/ROCKII mix; [1]): 0.05 to 0.5 µM |
| 4-(1-Amino-2-{[2-(3-fluoro- phenyl)-acetyl]-methyl- amino}-ethyl)- N-pyridin-4-yl-benzamide [Compound 468] | 5 to 50 µM | 0.5 to 5 µM | – | – | – |
| COc1ccc(NC(=O)NCC(N)c2ccc(C(=O)Nc3ccncc3)cc2)cc1 (centres unmarked) [Compound 30, 4-{1-amino-2-[3-(4-methoxy-phenyl)-ureido]-ethyl}-N-pyridin-4-yl-benzamide] | 0.5 to 5 µM | 0.05 to 0.5 µM | – | – | – |
| COc1cccc(CC(=O)N2CCCC2C(N)c2ccc(C(=O)Nc3ccncc3)cc2)c1 (centres unmarked) [Compound 527, 4-(Amino-{1-[2-(3-methoxy-phenyl)-acetyl]-pyrrolidin-2-yl}-methyl)-N-pyridin-4-yl-benzamide] | 0.5 to 5 µM | 0.5 to 5 µM | – | – | – |
| NC(CC(=O)NCc1cc(Cl)cc(Cl)c1)c1ccc(C(=O)Nc2ccncc2)cc1 (centres unmarked) [Compound 250, 4-[1-Amino-2-(3,5-dichloro-benzylcarbamoyl)-ethyl]-N-pyridin-4-yl-benzamide] | – | – | 0.5 to 5 µM | 0.05 to 0.5 µM | – |
| CONC(=O)CC(N)c1ccc(C(=O)Nc2ccncc2)cc1 (centres unmarked) [Compound 183, 4-(1-amino-2-methoxycarbamoyl-ethyl)-N-pyridin-4-yl-benzamide] | – | – | 0.5 to 5 µM | 0.05 to 0.5 µM | – |
| CC(C)(C(=O)N1CCCC1C(N)c1ccc(C(=O)Nc2ccncc2)cc1)c1ccc(Cl)c(Cl)c1 (centres unmarked) [Compound 593, 4-(Amino-{1-[2-(3,4-dichloro-phenyl)-2-methyl-propionyl]-pyrrolidin-2-yl}-methyl)-N-pyridin-4-yl-benzamide] | 5 to 50 µM | 0.5 to 5 µM | – | – | – |
| NC(CC(=O)NCc1cccc(Cl)c1Cl)c1ccc(C(=O)Nc2ccncc2)cc1 (centres unmarked) [Compound 253, 4-[1-Amino-2-(2,3-dichloro-benzylcarbamoyl)-ethyl]-N-pyridin-4-yl-benzamide] | – | – | 0.05 to 0.5 µM | 0.05 to 0.5 µM | – |
| CN(CC(N)c1ccc(C(=O)Nc2ccncc2)cc1)C(=O)C1CCCc2sccc21 (centres unmarked) [Compound 520, 4,5,6,7-Tetrahydro-benzo[b]thiophene-4-carboxylic acid {2-amino-2-[4-(pyridin-4-ylcarbamoyl)-phenyl]-ethyl}-methyl-amide] | 5 to 50 µM | 0.5 to 5 µM | – | – | – |
| 4-(1-Amino-2-nonanoylamino-ethyl)- N-pyridin-4-yl-benzamide [Compound 38] | – | – | – | – | IC50 (PKC epsilon; [1]): 0.5 to 5 µM; IC50 (human ROCKα/ROCKII mix; [1]): 0.05 to 0.5 µM |
| NC(CC(=O)NCCc1c[nH]c2ccccc12)c1ccc(C(=O)Nc2ccncc2)cc1 (centres unmarked) [Compound 313, 4-{1-Amino-2-[2-(1H-indol-3-yl)-ethylcarbamoyl]-ethyl}-N-pyridin-4-yl-benzamide] | – | – | 0.5 to 5 µM | 0.05 to 0.5 µM | – |
| CC[C@H](NC(=O)CC(N)c1ccc(C(=O)Nc2ccncc2)cc1)c1ccccc1 (stereo partly drawn) [Compound 217, 4-[1-Amino-2-(1-(S)-phenyl-propylcarbamoyl)-ethyl]-N-pyridin-4-yl-benzamide] | – | – | 0.5 to 5 µM | 0.05 to 0.5 µM | – |
| 4-(1-Amino-2-{methyl-[2-(2- phenyl-thiazol-4-yl)-acetyl]- amino}-ethyl)- N-pyridin-4-yl-benzamide [Compound 445] | 5 to 50 µM | 0.5 to 5 µM | – | – | – |
| NC(CNC(=O)CSc1ncccn1)c1ccc(C(=O)Nc2ccncc2)cc1 (centres unmarked) [Compound 64, 4-{1-amino-2-[2-(pyrimidin-2-ylsulfanyl)-acetylamino]-ethyl}-N-pyridin-4-yl-benzamide] | – | – | – | – | IC50 (PKC epsilon; [1]): 5 to 50 µM; IC50 (human ROCKα/ROCKII mix; [1]): 0.5 to 5 µM |
| 4-{1-Amino-2-[(4-methoxy- cyclohexanecarbonyl)-amino]-ethyl}- N-pyridin-4-yl-benzamide [Compound 44] | – | – | – | – | IC50 (PKC epsilon; [1]): 5 to 50 µM; IC50 (human ROCKα/ROCKII mix; [1]): 0.5 to 5 µM |
| CN(C)CCCC(=O)NCC(N)c1ccc(C(=O)Nc2ccncc2)cc1 (centres unmarked) [Compound 53, 4-[1-Amino-2-(4-dimethylamino-butyrylamino)-ethyl]-N-pyridin-4-yl-benzamide] | – | – | – | – | IC50 (PKC epsilon; [1]): 5 to 50 µM; IC50 (human ROCKα/ROCKII mix; [1]): 0.5 to 5 µM |
| NC(CNC(=S)Nc1ccc(Cl)cc1)c1ccc(C(=O)Nc2ccncc2)cc1 (centres unmarked) [Compound 13, 4-{1-amino-2-[3-(4-chloro-phenyl)-thioureido]-ethyl}-N-pyridin-4-yl-benzamide] | 0.05 to 0.5 µM | 0.05 to 0.5 µM | – | – | – |
| NC(CC(=O)N[C@@H]1CCc2ccccc21)c1ccc(C(=O)Nc2ccncc2)cc1 (stereo partly drawn) [Compound 358, 4-[1-Amino-2-((R)-indan-1-ylcarbamoyl)-ethyl]-N-pyridin-4-yl-benzamide] | – | – | 0.05 to 0.5 µM | 0.05 to 0.5 µM | – |
| COc1cccc(CC(=O)N(C)CC(N)c2ccc(C(=O)Nc3ccncc3)cc2)c1 (centres unmarked) [Compound 426, 4-(1-Amino-2-{[2-(3-methoxy-phenyl)-acetyl}-methyl-amino}-ethyl)-N-pyridin-4-yl-benzamide] | 5 to 50 µM | 0.05 to 0.5 µM | – | – | – |
